Reference: patent publication US5102885A, “Imidazoquinoxaline compounds and their use” (Novo Nordisk A/S, priority 1989, dated 1992)

Tested on: benzodiazepine receptors
Assay: In vivo displacement of 3H-flunitrazepam specific binding to brain benzodiazepine receptors in mice
Design: species or system mice (female, NMR)
Conditions: test substance i.p. 15 min before 3H-FNM i.v. (4 μCi), sacrificed 20 min after 3H-FNM, forebrain
From the text: The pharmaceutical properties of the compounds of the invention can be illustrated by determining their capability for displacing radioactive labelled flunitrazepam from benzodiazepine receptors.
The displacement activity of the compounds of the invention may be found by determining the ED50 value. The ED50 value represents the dose (mg/kg) of a test substance which causes the specific binding of flunitrazepam to benzodiazepine receptors in a living brain to be reduced to 50% of the control value.
Such an in vivo test is carried out as follows:
Twenty minutes after a dose of ^3 H-flunitrazepam (^3 H-FNM) (200 μCi/kg, i.v.) the amount of specific ^3 H-FNM binding to brain benzodiazepine receptors has reached its maximal value.
Suspensions of test substances (2 mg/ml) are prepared in 5% Duphasol-X (TM Duphar, castor oil-ethylene oxide derivative for emulsifying and solubilizing oil and other water-insoluble substances) by sonification for 10 min using a Branson B15 microtip ultrasonifier (setting 7). Groups of three mice (female, NMR, 18-22 grams) are injected with the test substance at 100 mg/kg intraperitoneally. Fifteen minutes after test substance administration the mice are challenged with 4 μCi intravenously of ^3 H-FNM (70-90 Ci/mole) in 200 μl physiological saline. Twenty minutes after ^3 H-FNM administration mice are sacrificed by decapitation, the forebrains rapidly excised (within 30 sec) and homogenized in 12 ml of icecold 25 mM KH2 PO4, pH 7.1, using an Ultra-Turrax homogenizer fitted with an N 10 shaft. Two aliquots of 1 ml are immediately filtered through Whatman GF/C glassfibre filters and washed with 2×5 ml of the above mentioned buffer. The amounts of radioactivity on the filters are determined by conventional scintillation counting. One group of untreated mice serves as control. One to three mice are injected with 25 μg/kg clonazepam i.p. 30 minutes before ^3 H-FNM to determine the amount of non-specific ^3 H-FNM binding, which should be between 8-15% of total binding. […]
The ED50 value is determined from dose response curves.

Structure (SMILES)	ED50 (dose which inhibits 50% of specific 3H-flunitrazepam binding to benzodiazepine receptors in living brain) [mg/kg]
CC(=O)CC(=O)c1ncn2c1c(=O)n(C(C)C)c1ccccc12 [Compound 4, 4,5-dihydro-5-isopropyl-4-oxo-3-(1,3-dioxobutyl)-imidazo-[1,5-a]quinoxaline]	1.4
CC(C)(C)n1c(=O)c2c(C(=O)CC(=O)C3CC3)ncn2c2ccccc21 [Compound 6, 5-tert-butyl-3-(3-cyclopropyl-1,3-dioxopropyl)-4,5-dihydro-4-oxo-imidazo[1,5-a]quinoxaline]	2.5
CC(C)n1c(=O)c2c(C(=O)CC(=O)C3CC3)ncn2c2ccccc21 [Compound 2, 3-(3-cyclopropyl-1,3-dioxopropyl)-4,5-dihydro-5-isopropyl-4-oxo-imidazo[1,5-a]quinoxaline]	1.5
